According to paper PMC8012331, “Drug-induced hepatic steatosis in absence of severe mitochondrial dysfunction in HepaRG cells: proof of multiple mechanism-based toxicity” (Cell Biology and Toxicology, 2020):
Entries after “also recorded” stand apart in the source; their conditions may differ. Values belong to the molecule of their own block, whether it stands above or below them.

Key:
[1] = test system: primary human hepatocytes (PHH); test: Neutral lipids with Nile red in primary human hepatocytes; format: cell-based; conditions: 4 days
Experimental: Primary human hepatocytes (PHH) were purchased from Biopredic International (Saint-Grégoire, France). Cells were seeded by the supplier in coated 96-well plates at a density of 5 × 10^4 cells/well. Upon receipt, culture medium was removed and replaced by William’s E medium supplemented as previously described for HepaRG cell differentiation, except for DMSO set at 1%. After 2–3 days, cells were treated as for HepaRG cells. For HepaRG cells and PHH, cells were always maintained in incubators at 37 °C with 5% CO2 and saturating humidity.
Cells were then incubated with PBS containing 0.1 μg/mL Nile red for 30 min and washed once. […] For each well, four pictures were taken at a magnification of × 20 and analyzed with Columbus software (PerkinElmer) for quantification. These pictures were always taken in four different areas around the center of each well, and these areas were the same from one well to another, as programmed by the Columbus software. This software was also designed to count only living cells after exclusion of dying cells harboring nuclei with abnormal shape or altered Hoechst intensity. […] Neutral lipids were then normalized per number of nuclei and expressed relative to control cells. Examples of images used for neutral lipid quantification are shown in Supplementary Fig. 2.

[2] = test system: mitochondrial fatty acid oxidation (mtFAO); test: mtFAO with [U-14C]palmitic acid in HepaRG cells; format: cell-based, human; conditions: 4 days, vs control
Experimental: Experiments were carried out on passages 9 to 16. […] DPEN was dissolved in water.
Results were normalized to total protein content determined using the Pierce BCA assay kit from Thermo Fischer Scientific (Waltham, MA). Results were expressed in comparison to control cells.

apoC3 secretion = test: apoC3 level in culture medium (HTRF), HepaRG cells; format: cell-based, human; conditions: 4 days, culture medium, vs control
Experimental: Briefly, HepaRG cells were seeded in 96-well plates at a density of 2.6 × 10^4 cells/cm^2 and were first incubated in William’s E medium supplemented with 10% FBS (50% FBS from Eurobio and 50% FBS from GE Healthcare), 100 U/mL penicillin, 100 μg/mL streptomycin, 2 mM glutamine, 5 μg/mL insulin, and 50 μM hydrocortisone hemisuccinate. […] During this 1-month period, the culture medium was renewed three times a week. […] HepaRG cells were next cultured in the same FBS/DMSO conditions and incubated for 4 days with each drug at different concentrations. Culture medium was renewed every day and all investigations were performed after 96 h (i.e., 24 h after the fourth treatment). These investigations were mostly performed in 96-well plates except for western blot analysis, for which 6-well plates were used. Experiments were carried out on passages 9 to 16. All drugs (except DPEN), etomoxir, lomitapide, tunicamycin, thapsigargin, and TUDCA were dissolved in DMSO. DPEN was dissolved in water.
Apolipoprotein C3 (apoC3) level was measured using the Human Apolipoprotein C3 kit from Cisbio Bioassays (Codolet, France), according to the manufacturer’s instructions. Briefly, 10 μL of supernatants was incubated with two different specific anti-human apoC3 antibodies, one donor and one acceptor. The detection principle of apoC3 is based on HTRF® (Homogeneous Time Resolved Fluorescence), a time-resolved FRET (Förster Resonance Energy Transfer) technology. After 2 h of incubation, light emission was measured with the Infinite F Nano+ microplate reader (Tecan, Männedorf, Switzerland). ApoC3 level was calculated utilizing standard curve, based on the ratio of A665 nm/A615 nm, and normalized to the total cellular protein content. Results were expressed in comparison to control cells.

ATP citrate lyase (ACLY) = test: RT-qPCR ACLY mRNA in HepaRG cells; format: cell-based, human; conditions: 4 days, vs control
Experimental: (§1) Total RNA was extracted with the Nucleospin RNA isolation system purchased from Macherey-Nagel (Düren, Germany), which included a DNase treatment step. Quantification of isolated RNAs was assessed using a Nanodrop 1000 (Thermo Fisher Scientific, Waltham, MA). RNAs were reverse-transcribed into cDNAs using the High-Capacity cDNA Reverse Transcription Kit purchased from Applied Biosystems (Woolston, UK). Gene expression was assessed by real-time quantitative PCR analysis (RT-qPCR) using SYBR Green PCR Master Mix (Applied Biosystems) and a 384-well QuantStudio™ 7 Flex Real-Time PCR System (Thermo Fisher Scientific). Sequences of the primers used to measure gene expression are presented in Supplementary Table 3. Expression of GAPDH was chosen as reference and the 2^−ΔΔCt calculation method was used to express the relative expression of each selected gene.

[3] = test system: acetyl-CoA carboxylase alpha (ACACA); test: RT-qPCR ACACA mRNA in HepaRG cells; format: cell-based, human; conditions: 4 days, vs control
Experimental: as §1

[4] = test system: fatty acid synthase (FASN); test: RT-qPCR FASN mRNA in HepaRG cells; format: cell-based, human; conditions: 4 days, vs control
Experimental: as §1

[5] = test system: stearoyl-CoA desaturase 1 (hSCD1); test: RT-qPCR hSCD1 mRNA in HepaRG cells; format: cell-based, human; conditions: 4 days, vs control
Experimental: as §1

HepaRG cells [6] = test: Neutral lipids with Nile red in HepaRG cells; conditions: 4 days, selected concentrations (ATP loss < 30%, not above 100 × Cmax), vs control
[7] = test system: isolated mouse liver mitochondria; test: Oxygen consumption of isolated mouse liver mitochondria; format: biochemical; conditions: state 3
Experimental: For all aforementioned substrates, measurements were performed in parallel without or with 2 μM rotenone in order to calculate (EC20), as previously mentioned. Oxygen consumption was measured in real-time for 60 min at 37 °C in 96-well plates using a spectrofluorometer (Tecan Infinite® 200; λExcitation 380 nm; λEmission 650 nm). The slope of fluorescence increase, corresponding to the rate of oxygen consumption, was used for calculations. EC20 was thus assessed as previously described by compiling the percentage of inhibition obtained from 4 to 12 experiments.

HepaRG cells [8] = test: Cellular ATP level (CellTiter-Glo) in HepaRG cells; format: cell-based, human; conditions: 4 days, vs controls
Experimental: Cellular ATP level was measured using the CellTiter-Glo® Luminescent Cell Viability assay purchased from Promega (Charbonnières, France), according to the manufacturer’s instructions. Briefly, control and treated HepaRG cells were first washed with warm PBS and kept for 30 min at room temperature in phenol red-free William’s E medium. Cells were next incubated with the CellTiter-Glo® reagent for 10 min at room temperature. Cells were then transferred in opaque-walled multiwell plates and the luminescent signal was quantified using a POLARstar Omega microplate reader (BMG Labtech, Ortenberg, Germany). Results were expressed in comparison to control cells.

Steatosis in PHH batches (six batches tested) [1]: steatotic in two PHH batches
Compound: COc1ccc2c(c1)c(CC(=O)O)c(C)n2C(=O)c1ccc(Cl)cc1 [INDO, indomethacin]
Effect on mtFAO [2]: inhibited this metabolic pathway and mild
Effect on apoC3 secretion (apoC3 secretion): reduced the secretion
ACLY mRNA level (ATP citrate lyase (ACLY)): augmented mRNA abundance
ACACA mRNA level [3]: augmented mRNA abundance
FASN mRNA level [4]: augmented mRNA abundance
hSCD1 mRNA level [5]: also increased hSCD1 mRNA level

Steatosis in PHH batches (six batches tested) [1]: induced steatosis in only one PHH batch
EC20 for inhibition of O2 consumption, palmitoyl-coenzyme A + L-carnitine [7]: 20 ± 4 µM
Compound: CO[C@H]1/C=C/O[C@@]2(C)Oc3c(C)c(O)c4c(O)c(c(/C=N/N5CCN(C)CC5)c(O)c4c3C2=O)NC(=O)/C(C)=C\C=C\[C@H](C)[C@H](O)[C@@H](C)[C@@H](O)[C@@H](C)[C@H](OC(C)=O)[C@@H]1C [RIF, rifampicin]
Accumulation of neutral lipids (steatosis) (HepaRG cells [6]): significant accumulation of neutral lipids
Effect on mtFAO [2]: inhibited this metabolic pathway; also recorded: moderate
Effect on apoC3 secretion (apoC3 secretion): reduced the secretion
EC20 for inhibition of O2 consumption, glutamate/malate [7]: 34 ± 12 µM
EC20 for inhibition of O2 consumption, octanoyl-L-carnitine [7]: 17 ± 2 µM
EC20 for inhibition of O2 consumption, palmitoyl-L-carnitine [7]: 16 ± 3 µM
Loss of cellular ATP relative to the maximum concentration selected for the study (HepaRG cells [8]): 300 µM (loss of cellular ATP above 30% of the controls for higher concentrations, as shown in Supp. fig 1)
